According to the NIST ThermoML archive (doi:10.1007/s10765-008-0535-5):
Numbers after ± are expanded uncertainties.

Settings: Liquid, Pycnometric method

FCF [difluoromethane]
Settings | mass density [kg/m3]
268.15 K, 8268 kPa | 1093.5 ± 1.8
268.15 K, 8502 kPa | 1093.5 ± 1.8
269.15 K, 9280 kPa | 1093.3 ± 1.8
269.15 K, 9512 kPa | 1093.3 ± 1.8
270.15 K, 10291 kPa | 1093.2 ± 1.8
270.15 K, 10521 kPa | 1093.2 ± 1.8
271.15 K, 11302 kPa | 1093 ± 1.8
271.15 K, 11531 kPa | 1093 ± 1.8
272.15 K, 12312 kPa | 1092.9 ± 1.8
272.15 K, 12421 kPa | 1092.9 ± 1.8
272.15 K, 12540 kPa | 1092.9 ± 1.8
273.15 K, 13321 kPa | 1092.7 ± 1.8
273.15 K, 13429 kPa | 1092.8 ± 1.8
273.15 K, 13551 kPa | 1092.7 ± 1.8
274.15 K, 14330 kPa | 1092.6 ± 1.8
274.15 K, 14438 kPa | 1092.6 ± 1.8
274.15 K, 14560 kPa | 1092.6 ± 1.8
275.15 K, 15337 kPa | 1092.4 ± 1.8
275.15 K, 15444 kPa | 1092.4 ± 1.8
275.15 K, 15568 kPa | 1092.4 ± 1.8
276.15 K, 16344 kPa | 1092.3 ± 1.8
276.15 K, 16452 kPa | 1092.3 ± 1.8
276.15 K, 16577 kPa | 1092.3 ± 1.8
277.15 K, 17350 kPa | 1092.1 ± 1.8
277.15 K, 17457 kPa | 1092.1 ± 1.8
277.15 K, 17583 kPa | 1092.1 ± 1.8
278.15 K, 18354 kPa | 1092 ± 1.8
278.15 K, 18462 kPa | 1092 ± 1.8
278.15 K, 18589 kPa | 1092 ± 1.8
279.15 K, 19358 kPa | 1091.8 ± 1.8
279.15 K, 19465 kPa | 1091.8 ± 1.8
279.15 K, 19595 kPa | 1091.8 ± 1.8
280.15 K, 20361 kPa | 1091.7 ± 1.8
280.15 K, 20468 kPa | 1091.7 ± 1.8
280.15 K, 20598 kPa | 1091.7 ± 1.8
281.15 K, 21363 kPa | 1091.5 ± 1.8
281.15 K, 21470 kPa | 1091.5 ± 1.8
281.15 K, 21601 kPa | 1091.5 ± 1.8
282.15 K, 22363 kPa | 1091.4 ± 1.8
282.15 K, 22472 kPa | 1091.4 ± 1.8
282.15 K, 22602 kPa | 1091.4 ± 1.8
283.15 K, 23363 kPa | 1091.2 ± 1.8
283.15 K, 23473 kPa | 1091.2 ± 1.8
283.15 K, 23603 kPa | 1091.2 ± 1.8
284.15 K, 24362 kPa | 1091.1 ± 1.8
284.15 K, 24472 kPa | 1091.1 ± 1.8
284.15 K, 24606 kPa | 1091 ± 1.8
285.15 K, 25359 kPa | 1090.9 ± 1.8
285.15 K, 25470 kPa | 1090.9 ± 1.8
285.15 K, 25603 kPa | 1090.9 ± 1.8
286.15 K, 26356 kPa | 1090.8 ± 1.8
286.15 K, 26466 kPa | 1090.8 ± 1.8
286.15 K, 26598 kPa | 1090.7 ± 1.8
287.15 K, 27351 kPa | 1090.6 ± 1.8
287.15 K, 27461 kPa | 1090.6 ± 1.8
287.15 K, 27594 kPa | 1090.6 ± 1.8
288.15 K, 28345 kPa | 1090.4 ± 1.8
288.15 K, 28454 kPa | 1090.4 ± 1.8
288.15 K, 28588 kPa | 1090.4 ± 1.8
289.15 K, 5774 kPa | 1015.9 ± 1.6
289.15 K, 5835 kPa | 1015.9 ± 1.6
289.15 K, 29338 kPa | 1090.3 ± 1.8
289.15 K, 29446 kPa | 1090.3 ± 1.8
289.15 K, 29581 kPa | 1090.3 ± 1.8
290.15 K, 6570 kPa | 1015.8 ± 1.6
290.15 K, 6631 kPa | 1015.8 ± 1.6
291.15 K, 7365 kPa | 1015.7 ± 1.6
291.15 K, 7428 kPa | 1015.7 ± 1.6
292.15 K, 8161 kPa | 1015.6 ± 1.6
292.15 K, 8224 kPa | 1015.5 ± 1.6
293.15 K, 8956 kPa | 1015.5 ± 1.6
293.15 K, 9019 kPa | 1015.4 ± 1.6
294.15 K, 9752 kPa | 1015.3 ± 1.6
294.15 K, 9815 kPa | 1015.3 ± 1.6
295.15 K, 10546 kPa | 1015.2 ± 1.6
295.15 K, 10610 kPa | 1015.2 ± 1.6
296.15 K, 11341 kPa | 1015.1 ± 1.6
296.15 K, 11405 kPa | 1015.1 ± 1.6
297.15 K, 12135 kPa | 1015 ± 1.6
297.15 K, 12199 kPa | 1014.9 ± 1.6
298.15 K, 12929 kPa | 1014.9 ± 1.6
298.15 K, 12993 kPa | 1014.8 ± 1.6
299.15 K, 13723 kPa | 1014.7 ± 1.6
299.15 K, 13787 kPa | 1014.7 ± 1.6
300.15 K, 14517 kPa | 1014.6 ± 1.6
300.15 K, 14581 kPa | 1014.6 ± 1.6
301.15 K, 15309 kPa | 1014.5 ± 1.6
301.15 K, 15374 kPa | 1014.4 ± 1.6
302.15 K, 16102 kPa | 1014.4 ± 1.6
302.15 K, 16167 kPa | 1014.3 ± 1.6
303.15 K, 16894 kPa | 1014.2 ± 1.6
303.15 K, 16960 kPa | 1014.2 ± 1.6
304.15 K, 17685 kPa | 1014.1 ± 1.6
304.15 K, 17752 kPa | 1014.1 ± 1.6
305.15 K, 18476 kPa | 1014 ± 1.6
305.15 K, 18543 kPa | 1014 ± 1.6
306.15 K, 19267 kPa | 1013.9 ± 1.6
306.15 K, 19335 kPa | 1013.8 ± 1.6
307.15 K, 20125 kPa | 1013.7 ± 1.6
308.15 K, 20848 kPa | 1013.6 ± 1.6
308.15 K, 20915 kPa | 1013.6 ± 1.6
309.15 K, 21639 kPa | 1013.5 ± 1.6
309.15 K, 21704 kPa | 1013.4 ± 1.6
310.15 K, 22429 kPa | 1013.4 ± 1.6
310.15 K, 22492 kPa | 1013.3 ± 1.6
311.15 K, 23217 kPa | 1013.3 ± 1.6
311.15 K, 23281 kPa | 1013.2 ± 1.6
312.15 K, 24005 kPa | 1013.2 ± 1.6
312.15 K, 24068 kPa | 1013.1 ± 1.6
313.15 K, 24793 kPa | 1013 ± 1.6
313.15 K, 24855 kPa | 1012.9 ± 1.6
314.15 K, 25579 kPa | 1012.9 ± 1.6
314.15 K, 25641 kPa | 1012.8 ± 1.6
315.15 K, 26364 kPa | 1012.8 ± 1.6
315.15 K, 26427 kPa | 1012.7 ± 1.6
316.15 K, 27149 kPa | 1012.7 ± 1.6
316.15 K, 27212 kPa | 1012.6 ± 1.6
317.15 K, 27934 kPa | 1012.5 ± 1.6
317.15 K, 27996 kPa | 1012.4 ± 1.6
318.15 K, 28719 kPa | 1012.4 ± 1.6
318.15 K, 28779 kPa | 1012.3 ± 1.6
